Measurements reported in patent US20100093722A1, “HETEROARYL AND PHENYL SUBSTITUTED THIENO[2,3-d]PYRIMIDINES AND THEIR USE AS ADENOSINE A2a RECEPTOR ANTAGONISTS” (priority 2008, published 2010).
pKi: −log10 of the molar value.

Columns and labels:
[1] = target: T1, human adenosine A1 receptor (Homo sapiens, UniProt P30542); test: Adenosine A1 Receptor Functional Assay (A1GAL2); format: cell-based; conditions: CHO-K1 cells overexpressing human A1, cAMP inducible beta-galactosidase reporter, 4 nM r-PIA/1 uM Forskolin challenge
T1 construct: expressed in transfected cells; host or cells: CHO-K1
T1 sequence (P30542 1-326): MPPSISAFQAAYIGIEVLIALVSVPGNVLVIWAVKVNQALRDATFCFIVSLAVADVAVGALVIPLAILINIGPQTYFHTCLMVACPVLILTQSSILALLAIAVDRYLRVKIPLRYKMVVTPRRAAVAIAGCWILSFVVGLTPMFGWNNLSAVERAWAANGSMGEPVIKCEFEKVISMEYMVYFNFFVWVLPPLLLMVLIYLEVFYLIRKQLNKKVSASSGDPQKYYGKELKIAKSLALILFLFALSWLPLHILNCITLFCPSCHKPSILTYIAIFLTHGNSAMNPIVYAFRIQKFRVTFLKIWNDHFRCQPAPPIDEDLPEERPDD
Method: Adenosine A1 Receptor Functional Assay (A1GAL2)
To initiate the functional assay, cryopreserved CHO-K1 cells overexpressing the human adenosine A1 receptor and containing a cAMP inducible beta-galactosidase reporter gene were thawed, centrifuged, DMSO containing media removed, and then seeded with fresh culture media into clear 384-well tissue culture treated plates (BD #353961) at a concentration of 10K cells/well. Prior to assay, these plates were cultured for two days at 37+ C., 5% CO2, 90% Rh. On the day of the functional assay, culture media was removed and replaced with 45 uL assay medium (Hams/F-12 Modified (Mediatech #10-080CV) supplemented w/0.1% BSA). Test compounds were diluted and 11 point curves created at a 1000× concentration in 100% DMSO. Immediately after addition of assay media to the cell plates, 50 nL of the appropriate test compound antagonist or agonist control curves were added to cell plates using a Cartesian Hummingbird. Compound curves were allowed to incubate at room temperature on cell plates for approximately 15 minutes before addition of a 4 nM r-PIA (Sigma P4532)/1 uM Forskolin (Sigma F3917) agonist challenge (5 uL volume). A control curve of r-PIA in 1 uM Forskolin, a DMSO/Media control, and a single dose of Forskolin were also included on each plate. After additions, cell plates were allowed to incubate at 37° C., 5% CO2, 90% Rh for 5.5-6 hours. After incubation, media was removed, and cell plates were washed 1× 50 uL with DPBS w/o Ca & Mg (Mediatech 21-031-CV). Into dry wells, 20 uL of 1× Reporter Lysis Buffer (Promega E3971 (diluted in dH2O from 5× stock)) was added to each well and plates frozen at −20° C. overnight. For β-galactosidase enzyme calorimetric assay, plates were thawed out at room temperature and 20 μL 2× assay buffer (Promega) was added to each well. Color was allowed to develop at 37° C., 5% CO2, 90% Rh for 1-1.5 h or until reasonable signal appeared. The calorimetric reaction was stopped with the addition of 60 μL/well 1M sodium carbonate. Plates were counted at 405 nm on a SpectraMax Microplate Reader (Molecular Devices). Data was analyzed in Microsoft Excel and IC/EC50 curves were fit using a standardized macro.

[2] = target: T2, human adenosine A2a receptor (Homo sapiens, UniProt P29274); test: Adenosine A2a Receptor Functional Assay (A2AGAL2); format: cell-based; conditions: CHO-K1 cells overexpressing human A2a, cAMP inducible beta-galactosidase reporter, 15 nM NECA agonist challenge
T2 construct: expressed in transfected cells; host or cells: CHO-K1
Method: Adenosine A2a Receptor Functional Assay (A2AGAL2)
To initiate the functional assay, cryopreserved CHO-K1 cells overexpressing the human adenosine A2a receptor and containing a cAMP inducible beta-galactosidase reporter gene were thawed, centrifuged, DMSO containing media removed, and then seeded with fresh culture media into clear 384-well tissue culture treated plates (BD #353961) at a concentration of 10K cells/well. Prior to assay, these plates were cultured for two days at 37° C., 5% CO2, 90% Rh. On the day of the functional assay, culture media was removed and replaced with 45 uL assay medium (Hams/F-12 Modified (Mediatech #10-080CV) supplemented w/0.1% BSA). Test compounds were diluted and 11 point curves created at a 1000× concentration in 100% DMSO. Immediately after addition of assay media to the cell plates, 50 nL of the appropriate test compound antagonist or agonist control curves were added to cell plates using a Cartesian Hummingbird. Compound curves were allowed to incubate at room temperature on cell plates for approximately 15 minutes before addition of a 15 nM NECA (Sigma E2387) agonist challenge (5 uL volume). A control curve of NECA, a DMSO/Media control, and a single dose of Forskolin (Sigma F3917) were also included on each plate. After additions, cell plates were allowed to incubate at 37° C., 5% CO2, 90% Rh for 5.5-6 hours. After incubation, media was removed, and cell plates were washed 1× 50 uL with DPBS w/o Ca & Mg (Mediatech 21-031-CV). Into dry wells, 20 uL of 1× Reporter Lysis Buffer (Promega E3971 (diluted in dH2O from 5× stock)) was added to each well and plates frozen at −20° C. overnight. For β-galactosidase enzyme calorimetric assay, plates were thawed out at room temperature and 20 μL 2× assay buffer (Promega) was added to each well. Color was allowed to develop at 37° C., 5% CO2, 90% Rh for 1-1.5 h or until reasonable signal appeared. The calorimetric reaction was stopped with the addition of 60 μL/well 1M sodium carbonate. Plates were counted at 405 nm on a SpectraMax Microplate Reader (Molecular Devices). Data was analyzed in Microsoft Excel and IC/EC50 curves were fit using a standardized macro.

T2 sequence (P29274 whole entry): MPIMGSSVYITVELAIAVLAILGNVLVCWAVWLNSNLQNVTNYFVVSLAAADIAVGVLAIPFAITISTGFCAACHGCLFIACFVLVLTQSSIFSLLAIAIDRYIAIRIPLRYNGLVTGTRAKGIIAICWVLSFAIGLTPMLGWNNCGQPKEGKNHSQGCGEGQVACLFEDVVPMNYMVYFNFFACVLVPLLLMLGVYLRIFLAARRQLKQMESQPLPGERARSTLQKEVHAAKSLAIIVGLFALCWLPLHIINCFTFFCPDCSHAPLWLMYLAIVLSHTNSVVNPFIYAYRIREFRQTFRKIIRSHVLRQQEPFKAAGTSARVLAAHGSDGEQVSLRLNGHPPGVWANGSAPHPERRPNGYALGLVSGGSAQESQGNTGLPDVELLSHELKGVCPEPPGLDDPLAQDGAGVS

Row | pKi [1] | pKi [2] | Compound
1 | 6.33 | 7.10 | N#Cc1cccc(-c2nc(N)c3cc(CCc4ccccn4)sc3n2)c1 [Example 2, 3-[4-Amino-6-(2-pyridin-2-yl-ethyl)-thieno[2,3-d]pyrimidin-2-yl]-benzonitrile]
2 | 6.36 | 7.33 | Nc1nc(-c2ccccc2)nc2sc(Cc3ccc(Cl)nc3)cc12 [Example 3, 6-(6-Chloro-pyridin-3-ylmethyl)-2-phenyl-thieno[2,3-d]pyrimidin-4-ylamine]
3 | 6.82 | 7.53 | COc1cccc(C(O)c2cc3c(N)nc(-c4cccc(C#N)c4)nc3s2)n1 (stereo not shown) [Example 11, 3-{4-Amino-6-[hydroxy-(6-methoxy-pyridin-2-yl)-methyl]-thieno[2,3-d]pyrimidin-2-yl}-benzonitrile]
4 | 5.89 | 6.70 | N#Cc1cccc(-c2nc(N)c3cc(C(O)c4ccc(N5CCCCC5)nc4)sc3n2)c1 (stereo not shown) [Example 12, 3-{4-Amino-6-[hydroxy-(3,4,5,6-tetrahydro-2H-[1,2′]bipyridinyl-5′-yl)-methyl]-thieno[2,3-d]pyrimidin-2-yl}-benzonitrile]
5 | 6.35 | 6.77 | N#Cc1cccc(-c2nc(N)c3cc(C(O)c4cccnc4N4CCOCC4)sc3n2)c1 (stereo not shown) [Example 13, 3-{4-Amino-6-[hydroxy-(2-morpholin-4-yl-pyridin-3-yl)-methyl]-thieno[2,3-d]pyrimidin-2-yl}-benzonitrile]
6 | 5.89 | 5.98 | N#Cc1cccc(-c2nc(N)c3cc(C(O)c4cccnc4N4CCCC4)sc3n2)c1 (stereo not shown) [Example 14, 3-{4-Amino-6-[hydroxy-(2-pyrrolidin-1-yl-pyridin-3-yl)-methyl]-thieno[2,3-d]pyrimidin-2-yl}-benzonitrile]
7 | 7.31 | 8.24 | Nc1nc(-c2ccccc2)nc2sc(Cc3ccccn3)cc12 [Example 16, 2-Phenyl-6-pyridin-2-ylmethyl-thieno[2,3-d]pyrimidin-4-ylamine]
8 | 6.56 | 7.49 | N#Cc1cccc(-c2nc(N)c3cc(C(O)c4cccnc4N4CCCCC4)sc3n2)c1 (stereo not shown) [Example 17, 3-{4-Amino-6-[hydroxy-(3,4,5,6-tetrahydro-2H-[1,2′]bipyridinyl-3′-yl)-methyl]-thieno[2,3-d]pyrimidin-2-yl}-benzonitrile]
9 | 6.53 | 7.34 | N#Cc1cccc(-c2nc(N)c3cc(Cc4cccnc4N4CCCCC4)sc3n2)c1 [Example 20, 3-[4-Amino-6-(3,4,5,6-tetrahydro-2H-[1,2′]bipyridinyl-3′-ylmethyl)-thieno[2,3-d]pyrimidin-2-yl]-benzonitrile]
10 | < 6.21 | 7.60 | N#Cc1cccc(-c2nc(N)c3cc(Cc4ccncc4Cl)sc3n2)c1 [Example 22, 3-[4-Amino-6-(3-chloro-pyridin-4-ylmethyl)-thieno[2,3-d]pyrimidin-2-yl]-benzonitrile]
11 | 6.23 | 7.40 | N#Cc1cccc(-c2nc(N)c3cc(Cc4cccnc4N4CCOCC4)sc3n2)c1 [Example 27, 3-[4-Amino-6-(2-morpholin-4-yl-pyridin-3-ylmethyl)-thieno[2,3-d]pyrimidin-2-yl]-benzonitrile]
12 | 6.10 | 7.06 | N#Cc1cccc(-c2nc(N)c3cc(C(O)c4ccncc4)sc3n2)c1 (stereo not shown) [Example 28, 3-[4-Amino-6-(hydroxy-pyridin-4-yl-methyl)-thieno[2,3-d]pyrimidin-2-yl]-benzonitrile]
13 | 6.84 | 8.29 | N#Cc1cccc(-c2nc(N)c3cc(C(O)c4cccnc4F)sc3n2)c1 (stereo not shown) [Example 29, 3-{4-Amino-6-[(2-fluoro-pyridin-3-yl)-hydroxy-methyl]-thieno[2,3-d]pyrimidin-2-yl}-benzonitrile]
14 | 6.54 | 7.80 | N#Cc1cccc(-c2nc(N)c3cc(C(O)c4cccnc4)sc3n2)c1 (stereo not shown) [Example 31, 3-[4-Amino-6-(hydroxy-pyridin-3-yl-methyl)-thieno[2,3-d]pyrimidin-2-yl]-benzonitrile]
